Read-outs that look alike come from different tables or passages of the source.
Assays:
SARS-CoV-2 = test: Inhibitory activity of cytopathic effect (CPE) in HEK293T/ACE2-TMPRSS2 cells; assay type: cell-based; conditions: Severe acute respiratory syndrome coronavirus 2, HEK-293T, 72 h, HEK293T/ACE2-TMPRSS2 cells
SARS-CoV-2 3CL protease = SARS-CoV-2 3CL protease (Severe acute respiratory syndrome coronavirus 2, UniProt P0DTD1); test: Inhibitory activity test against SARS-CoV-2 3CL proteases; assay type: biochemical
[1] = cultured 3 days, CellTiter-Glo 2.0 luminescence, read-out: EC50 (50% SARS-CoV-2 infected cell death inhibitory concentration)
[2] = read-out: IC50 (50% SARS-CoV-2 3CL protease inhibitory concentration)
[3] = 50% SARS-CoV-2 infected cell death inhibitory concentration, CellTiter-Glo 2.0 after 3 days culture, read-out: EC50

Structure (SMILES) | EC50 (SARS-CoV-2; [1]) [nM] | IC50 (SARS-CoV-2 3CL protease; [2]) [nM] | EC50 (SARS-CoV-2; [3]) [nM] | IC50 (SARS-CoV-2 3CL protease; IC50 (50% SARS-CoV-2 3CL protease inhibitory concentration)) [nM]
COc1cc(-c2ncc(F)cc2Cl)cc2c1c(=O)n(Cc1ncn(C)n1)c(=O)n2Cc1cc(F)c(F)c(F)c1 [Compound I-0827] | 100 to 1000 | < 100 |  | 
COc1cc(-c2ncc(N)cc2Cl)cc2c1c(=O)n(Cc1ncn(C)n1)c(=O)n2Cc1cc(F)c(F)c(F)c1 [Compound I-0834] | < 100 | < 100 |  | 
COc1cc(-c2ncccc2Cl)cc2c1c(=O)n(Cc1ncn(C)n1)c(=O)n2Cc1cc(F)c(F)c(F)c1 [Compound I-0838] | 100 to 1000 | < 100 |  | 
COc1cc(-c2cc([C@@H](C)O)ccc2Cl)cc2c1c(=O)n(Cc1ncn(C)n1)c(=O)n2Cc1cc(F)c(F)c(F)c1 [Compound I-0839] | 100 to 1000 | < 100 |  | 
COc1cc(-c2cc([C@H](C)O)ccc2Cl)cc2c1c(=O)n(Cc1ncn(C)n1)c(=O)n2Cc1cc(F)c(F)c(F)c1 [Compound I-0840] | < 100 | < 100 |  | 
COc1nc(-c2cc(C#N)ccc2Cl)cc2c1c(=O)n(-c1cnc3ccccn13)c(=O)n2Cc1ccc(F)c(C#N)c1 [Compound I-0842] |  | 34 | 88.2 | 
COc1nc2c(=O)n(-c3cnc4cc(F)ccn34)c(=O)n(Cc3cc(Cl)c(F)cc3C)c2cc1-c1cc(C(C)(C)O)ccc1Cl [Compound I-0843] |  | 7.4 | 72.3 | 
N#Cc1ccc(Cl)c(-c2cc3c(c(=O)n(-c4cnc5ccccn45)c(=O)n3Cc3cc(F)c(F)c(F)c3)c3nccnc23)c1 [Compound I-0844] | < 100 | < 100 |  | 
COc1cc(-c2cccc(C#N)c2Cl)cc2c1c(=O)n(Cc1ncn(C)n1)c(=O)n2Cc1cc(F)c(F)c(F)c1 [Compound I-0847] | 100 to 1000 | < 100 |  | 
COc1cc(-c2cc3nc(C(F)F)[nH]c3cc2Cl)cc2c1c(=O)n(Cc1ncn(C)n1)c(=O)n2Cc1cc(F)c(F)c(F)c1 [Compound I-0848] | 100 to 1000 | < 100 |  | 
CCOc1nc2cc(-c3cc(OC)c4c(=O)n(Cc5ncn(C)n5)c(=O)n(Cc5cc(F)c(F)c(F)c5)c4c3)c(Cl)cc2[nH]1 [Compound I-0852] | 100 to 1000 | < 100 |  | 
COc1nc2cc(-c3cc(OC)c4c(=O)n(Cc5ncn(C)n5)c(=O)n(Cc5cc(F)c(F)c(Cl)c5)c4c3)c(Cl)cc2[nH]1 [Compound I-0858] |  | 2.4 | 44.1 | 
N#Cc1ccc(Cl)c(-c2cc3c(c4c2C(O)CO4)c(=O)n(-c2cncc(Cl)c2)c(=O)n3Cc2cc(F)c(F)c(F)c2)c1 (centres unmarked) [Compound I-0859] |  | 1.9 | 18.7 | 
N#Cc1ccc(Cl)c(-c2cc3c(c(=O)n(-c4cncc(Cl)c4)c(=O)n3Cc3cc(F)c(F)c(F)c3)c3occc23)c1 [Compound I-0863] |  | 5.3 | 52.5 | 
Cn1cnc(Cn2c(=O)c3c4c(c(-c5cc(C#N)ccc5Cl)cc3n(Cc3cc(F)c(F)c(F)c3)c2=O)[C@@H](O)CO4)n1 [Compound I-0864] |  | 1.4 | 46.2 | 
Cn1cnc(Cn2c(=O)c3c4c(c(-c5cc(C#N)ccc5Cl)cc3n(Cc3cc(F)c(F)c(F)c3)c2=O)[C@H](O)CO4)n1 [Compound I-0865] | 100 to 1000 | < 100 |  | 
Cn1cnc(Cn2c(=O)c3c4c(c(-c5cc(C#N)ccc5Cl)cc3n(Cc3cc(F)c(F)c(F)c3)c2=O)C(F)(F)CO4)n1 [Compound I-0866] |  | 6.4 | 15.4 | 
COc1cc(-c2c(Cl)ccc3c2CCN(C)C3=O)cc2c1c(=O)n(Cc1ncn(C)n1)c(=O)n2Cc1cc(F)c(F)c(F)c1 [Compound I-0867] |  | 1.2 | 47.9 | 
COc1cc(-c2c(Cl)ccc3c2CCC(=O)N3C)cc2c1c(=O)n(Cc1ncn(C)n1)c(=O)n2Cc1cc(F)c(F)c(F)c1 [Compound I-0868] |  | 1.6 | 21.4 | 
COc1cc(-c2c(Cl)ccc3c2CC(=O)N3C)cc2c1c(=O)n(Cc1ncn(C)n1)c(=O)n2Cc1cc(F)c(F)c(F)c1 [Compound I-0869] | < 100 | < 100 |  | 
CNC(=O)c1ccc(Cl)c(-c2cc3c(c4c2CCO4)c(=O)n(Cc2ncn(C)n2)c(=O)n3Cc2cc(F)c(F)c(Cl)c2)n1 [Compound I-0870] | < 100 | < 100 |  | 
Cn1cnc(Cn2c(=O)c3c4c(c(N5CCCC5=O)cc3n(Cc3cc(F)c(F)c(Cl)c3)c2=O)CCO4)n1 [Compound I-0871] |  | 6.6 | 11 | 

Structure (SMILES) | EC50 (SARS-CoV-2; [1]) [nM] | IC50 (SARS-CoV-2 3CL protease; [2]) [nM] | EC50 (SARS-CoV-2; [3]) [nM] | IC50 (SARS-CoV-2 3CL protease; IC50 (50% SARS-CoV-2 3CL protease inhibitory concentration)) [nM]
COc1nc(-c2c(Cl)ccc3c2CCN(C)C3=O)cc2c1c(=O)n(Cc1ncn(C)n1)c(=O)n2Cc1cc(F)c(F)c(Cl)c1 [Compound I-0874] |  | 9.4 | 39.2 | 
COc1cc(-c2cc3c(C(F)(F)F)n[nH]c3cc2Cl)cc2c1c(=O)n(Cc1ncn(C)n1)c(=O)n2Cc1cc(F)c(F)c(F)c1 [Compound I-0875] | < 100 | < 100 |  | 
[2H]C([2H])([2H])N1CCc2c(ccc(Cl)c2-c2cc(OC)c3c(=O)n(Cc4ncn(C)n4)c(=O)n(Cc4cc(F)c(F)c(F)c4)c3c2)C1=O [Compound I-0876] | < 100 | < 100 |  | 
CNC(=O)c1ccc(Cl)c(-c2cc3c(nc2OC)c(=O)n(Cc2ncn(C)n2)c(=O)n3Cc2cc(F)c(F)c(Cl)c2)n1 [Compound I-0878] |  | 3.9 | 13.7 | 
COc1nc2c(=O)n(Cc3ncn(C)n3)c(=O)n(Cc3cc(F)c(F)c(Cl)c3)c2cc1-c1nc(C(F)F)ccc1Cl [Compound I-0879] | < 100 | < 100 |  | 
COc1nc2c(=O)n(Cc3ncn(C)n3)c(=O)n(Cc3cc(F)c(F)c(Cl)c3)c2cc1-c1nc(C(C)(C)O)ccc1Cl [Compound I-0880] |  | 4.4 | 17.8 | 
CNC(=O)c1nc(-c2cc3c(nc2OC)c(=O)n(Cc2ncn(C)n2)c(=O)n3Cc2cc(F)c(F)c(Cl)c2)c(Cl)cc1F [Compound I-0881] | < 100 | < 100 |  | 
COc1nc2c(=O)n(Cc3ncn(C)n3)c(=O)n(Cc3cc(Cl)c(F)cc3C)c2cc1-c1nc(C(C)(C)O)ccc1Cl [Compound I-0882] | < 100 | < 100 |  | 
COc1nc2c(=O)n(Cc3ncn(C)n3)c(=O)n(Cc3cc(F)c(F)c(Cl)c3)c2cc1-c1nc(C(=O)NC(C)C)ccc1Cl [Compound I-0883] |  | 3.3 | 30.2 | 
COc1nc2c(=O)n(Cc3ncn(C)n3)c(=O)n(Cc3cc(Cl)c(F)cc3C)c2cc1-c1nc(C(F)F)ccc1Cl [Compound I-0884] | < 100 | < 100 |  | 
COc1nc2c(=O)n(Cc3ncn(C)n3)c(=O)n(Cc3cc(F)c(F)c(Cl)c3)c2cc1-c1nc(C(=O)NC2COC2)ccc1Cl [Compound I-0885] | < 100 | < 100 |  | 
COc1nc2c(=O)n(Cc3ncn(C)n3)c(=O)n(Cc3cc(F)c(F)c(Cl)c3)c2cc1-c1nc(C(=O)NC2(C)COC2)ccc1Cl [Compound I-0886] | < 100 | < 100 |  | 
COc1nc2c(=O)n(Cc3ncn(C)n3)c(=O)n(Cc3cc(F)c(F)c(Cl)c3)c2cc1-c1cc(N=S(C)(C)=O)ccc1Cl [Compound I-0887] |  | 9.8 | 98.2 | 
COc1cc(-c2cc(C#N)ccc2Br)cc2c1c(=O)n(Cc1ncn(C)n1)c(=O)n2Cc1cc(F)c(F)c(F)c1 [Compound I-0891] |  | 10 | 12.1 | 
COc1cc(-c2cc(P(C)(C)=O)ccc2Cl)cc2c1c(=O)n(Cc1ncn(C)n1)c(=O)n2Cc1cc(F)c(F)c(F)c1 [Compound I-0893] |  | 36 | 2330 | 
COc1ccc(Cl)c(-c2cc(OC)c3c(=O)n(Cc4ncn(C)n4)c(=O)n(Cc4cc(F)c(F)c(F)c4)c3c2)n1 [Compound I-0895] | 100 to 1000 | < 100 |  | 
COc1cc(-c2cc3cc[nH]c3cc2Cl)cc2c1c(=O)n(Cc1ncn(C)n1)c(=O)n2Cc1cc(F)c(F)c(F)c1 [Compound I-0901] | < 100 | < 100 |  | 
COc1cc(-c2cc3c(C#N)c[nH]c3cc2Cl)cc2c1c(=O)n(Cc1ncn(C)n1)c(=O)n2Cc1cc(F)c(F)c(F)c1 [Compound I-0902] |  | 8.2 | 104 | 
COc1cc(-c2ccc(CC#N)cc2Cl)cc2c1c(=O)n(Cc1ncn(C)n1)c(=O)n2Cc1cc(F)c(F)c(F)c1 [Compound I-0907] | 100 to 1000 | < 100 |  | 
COc1cc(-c2cn3nncc3cc2Cl)cc2c1c(=O)n(Cc1ncn(C)n1)c(=O)n2Cc1cc(F)c(F)c(F)c1 [Compound I-0914] | < 100 | < 100 |  | 
[2H]C([2H])([2H])n1cnc(Cn2c(=O)c3c(OC)nc(N4CC[C@@H](F)C4)cc3n(Cc3cc(F)c(F)c(F)c3)c2=O)n1 [Compound I-0917] | < 100 |  |  | < 100
